From US20230116972A1, “CD38 MODULATORS AND METHODS OF USE THEREOF” (Cytokinetics, Inc., priority 2021, published 2023) come the findings set out here.

One assay addresses T1, human CD38 (Homo sapiens, UniProt P28907).
T1 sequence (P28907 1-300): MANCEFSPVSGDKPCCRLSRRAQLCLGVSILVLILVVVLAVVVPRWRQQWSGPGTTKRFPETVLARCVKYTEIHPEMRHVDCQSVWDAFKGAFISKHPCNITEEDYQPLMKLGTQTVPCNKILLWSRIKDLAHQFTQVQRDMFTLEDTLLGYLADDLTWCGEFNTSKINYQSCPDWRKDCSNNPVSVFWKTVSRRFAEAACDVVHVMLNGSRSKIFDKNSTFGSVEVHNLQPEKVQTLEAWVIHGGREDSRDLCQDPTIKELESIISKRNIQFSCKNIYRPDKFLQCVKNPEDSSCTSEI
The experiment in a line: human recombinant CD38 enzyme assay (hydrolysis of NAD+). It counts as biochemical. To be noted: human recombinant CD38, 0.4 nM enzyme, 62.5 μM NAD+; read-out: hCD38 BioChem IC50. In short, it runs like this:
(§1)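 Cell-free recombinant enzyme, NAD+ substrate, 60 min at RT. Stop/detect: ethanol/ADH plus semicarbazide and a CD38 inhibitor (15 min), then NaOH, then resazurin/diaphorase (15 min). Remaining NAD+ read as resorufin fluorescence, Ex/Em 540/590 nm. Inhibition fitted from dose responses.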

A further assay has as its target T2, mouse CD38 (Mus musculus, UniProt P56528).
T2 sequence (P56528 1-304): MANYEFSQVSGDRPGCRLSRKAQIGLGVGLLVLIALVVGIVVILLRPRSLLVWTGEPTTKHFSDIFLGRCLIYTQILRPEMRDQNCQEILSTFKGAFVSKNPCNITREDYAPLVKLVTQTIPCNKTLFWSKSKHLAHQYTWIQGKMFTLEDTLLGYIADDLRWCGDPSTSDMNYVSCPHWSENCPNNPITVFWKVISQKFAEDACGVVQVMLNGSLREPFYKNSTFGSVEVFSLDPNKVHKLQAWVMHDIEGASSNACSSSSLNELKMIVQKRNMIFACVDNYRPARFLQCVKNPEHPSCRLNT
Briefly: mouse recombinant CD38 enzyme assay (hydrolysis of NAD+). The class given is biochemical. Conditions: read-out: mCD38 BioChem IC50. The method, boiled down:
as §1

Assay [1] addresses T3, endogenous CD38 in HL60 cells (Homo sapiens, UniProt P28907).
T3 construct: endogenous in cells; host or cells: HL60 (leukemic cells, treated with all-trans retinoic acid)
T3 sequence (P28907 1-300): T1 sequence (P28907 1-300)
Briefly: cellular CD38 assay in HL60 cells (cellular NAD levels). The class given is cell-based. To be noted: all-trans retinoic acid, 24 hours, read-out: hCD38 HL60 ATRA NAD Cell Diaphorase IC50. The method, boiled down: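 HL60 cells (20000/well) were treated with compound in DMSO for 24 h. Cellular NAD was then measured by an enzymatic cycling mix (alcohol dehydrogenase, diaphorase, 40 uM resazurin, 10 uM FMN, 3% ethanol, Triton X-100, pH 8.4).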

For the compound `O=C(N[C@H]1CC[C@H](C(F)F)CC1)c1cc(C(F)(F)F)nc(-n2ccnc2)n1` [Compound 138, N-((1r,4r)-4-(difluoromethyl)cyclohexyl)-2-(1H-imidazol-1-yl)-6-(trifluoromethyl)pyrimidine-4-carboxamide], the IC50 – broadly, the concentration at which inhibition is half-maximal – was 73 nM on human CD38, 25 nM at mouse CD38 and 3010 nM in assay [1].

Turning to `CO[C@H]1CC[C@H](NC(=O)c2nc(-n3ccnc3)ccc2C)CC1` [Compound 100, 6-(1H-imidazol-1-yl)-N-(4-methoxycyclohexyl)-3-methylpicolinamide], the IC50 on human CD38 came out at 263 nM; at mouse CD38, 61 nM; in assay [1] it was 6200 nM.

Turning to `Cn1cncc1-c1nc(C(=O)N[C@H]2CCc3c(F)cccc32)cc(C2CCOCC2)n1` [Compound 228, (S)-N-(4-fluoro-2,3-dihydro-1H-inden-1-yl)-2-(1-methyl-1H-imidazol-5-yl)-6-(tetrahydro-2H-pyran-4-yl)pyrimidine-4-carboxamide], the IC50 on human CD38 is 16.2 nM; on mouse CD38, 4.7 nM; in assay [1] it was 3880 nM.

For `Cn1cncc1-c1nc(C(=O)N[C@H]2CC[C@H](C)CC2)cc(C(F)(F)F)n1` [Compound 153, 2-(1-methyl-1H-imidazol-5-yl)-N-((1r,4r)-4-methylcyclohexyl)-6-(trifluoromethyl)pyrimidine-4-carboxamide], the IC50 amounted to 25 nM on human CD38, 2 nM on mouse CD38 and 3130 nM in assay [1].

Take `CC(C)(O)[C@H]1CC[C@H](NC(=O)c2nccc(-n3ccnc3)n2)CC1` [Compound 251, N-((1r,4r)-4-(2-hydroxypropan-2-yl)cyclohexyl)-4-(1H-imidazol-1-yl)pyrimidine-2-carboxamide]: the IC50 at human CD38 was found to be 207 nM; at mouse CD38 it was 58.7 nM; in assay [1], 5110 nM.

As for `Cn1cncc1-c1ccnc(C(=O)Nc2ccc(C(C)(C)O)cc2)n1` [Compound 358, N-(4-(2-hydroxypropan-2-yl)phenyl)-4-(1-methyl-1H-imidazol-5-yl)pyrimidine-2-carboxamide], the IC50 on human CD38 is 4.3 nM; on mouse CD38, 5.8 nM; in assay [1] it was 1010 nM.

As to `O=C(N[C@H]1C[C@H](c2ccccc2F)C1)c1nccc(-n2ccnc2)n1` [Compound 236, N-((1r,3r)-3-(2-fluorophenyl)cyclobutyl)-4-(1H-imidazol-1-yl)pyrimidine-2-carboxamide], the results for the IC50 (at human CD38; at mouse CD38; in assay [1]) were 46.4 nM, 27.2 nM and 1870 nM, respectively.

In the case of `O=C(Nc1ccccn1)c1cc(-n2ccnc2)ccn1` [Compound 4, 4-(1H-imidazol-1-yl)-N-(pyridin-2-yl)picolinamide], the IC50 on human CD38 came out at 1130 nM; on mouse CD38, 491 nM; in assay [1], 8510 nM.

For the compound `CC(C)(O)c1ccc(NC(=O)c2ccnc(-n3ccnc3)n2)cn1` [Compound 248, N-(6-(2-hydroxypropan-2-yl)pyridin-3-yl)-2-(1H-imidazol-1-yl)pyrimidine-4-carboxamide], the IC50 on human CD38 is 10.7 nM; on mouse CD38, 13.8 nM; in assay [1], 874 nM.

Regarding `O=C(N[C@H]1CC[C@H](NCC(F)(F)F)CC1)c1nccc(-n2ccnc2)n1` [Compound 265, 4-(1H-imidazol-1-yl)-N-((1r,4r)-4-((2,2,2-trifluoroethyl)amino)cyclohexyl) pyrimidine-2-carboxamide], the IC50 worked out at 83.4 nM at human CD38, 35.9 nM at mouse CD38 and 4170 nM in assay [1].

Regarding `Cc1cc(C(=O)NC2CC3(C2)CC(F)(F)C3)nc(-c2cncn2C)n1` [Compound 124, N-(6,6-difluorospiro[3.3]heptan-2-yl)-6-methyl-2-(1-methyl-1H-imidazol-5-yl)pyrimidine-4-carboxamide], the results for the IC50 (at human CD38; on mouse CD38; in assay [1]) were 17 nM, 1 nM and 1400 nM, respectively.

Take `CO[C@@H]1CC[C@@H](NC(=O)c2cccc(-n3ccnc3)n2)C1` [Compound 57, 6-(1H-imidazol-1-yl)-N-(3-methoxycyclopentyl)picolinamide]: the values for the IC50 (at human CD38; on mouse CD38; in assay [1]) were 187 nM, 36 nM and 4550 nM, respectively.

`Cn1cncc1-c1nc(C(=O)NC2CC3(C2)CC(F)(F)C3)cc(C(F)(F)F)n1` [Compound 154, N-(6,6-difluorospiro[3.3]heptan-2-yl)-2-(1-methyl-1H-imidazol-5-yl)-6-(trifluoromethyl)pyrimidine-4-carboxamide]: the IC50 at human CD38 was 11 nM; at mouse CD38 it was 1 nM; in assay [1] it was 3150 nM.

On to `Cc1cccc(NC(=O)c2cccc(-n3ccnc3)n2)n1` [Compound 33, 6-(1H-imidazol-1-yl)-N-(6-methylpyridin-2-yl)picolinamide], for which the values for the IC50 (on human CD38; on mouse CD38; in assay [1]) were 313 nM, 228 nM and 13700 nM, respectively.

Turning to `Cn1cncc1-c1ccnc(C(=O)N[C@H]2C[C@H](Oc3ccccc3)C2)n1` [Compound 220, 4-(1-methyl-1H-imidazol-5-yl)-N-((1r,3r)-3-phenoxycyclobutyl)pyrimidine-2-carboxamide], the results for the IC50 (at human CD38; at mouse CD38; in assay [1]) were 146 nM, 52.2 nM and 4950 nM, respectively.

On to `COc1cc(C(=O)Nc2ccc(C(F)F)nc2)nc(-c2cncs2)c1` [Compound 163, N-(6-(Difluoromethyl)pyridin-3-yl)-4-methoxy-6-(thiazol-5-yl)picolinamide], for which the IC50 at human CD38 was 375 nM; on mouse CD38, 82 nM; in assay [1] it was 11700 nM.

In the case of `O=C(Nc1cccnc1)c1ccnc(-n2ccnc2)n1` [Compound 37, 2-(1H-imidazol-1-yl)-N-(pyridin-3-yl)pyrimidine-4-carboxamide], the IC50 at human CD38 is 4 nM; at mouse CD38, 6 nM; in assay [1] it was 339 nM.

In the case of `O=C(Nc1ccc(F)cc1)c1cccc(-n2ccnc2)n1` [Compound 19, N-(4-fluorophenyl)-6-(1H-imidazol-1-yl)picolinamide], the values for the IC50 (at human CD38; on mouse CD38; in assay [1]) were 7 nM, 9 nM and 345 nM, respectively.

Turning to `O=C(Nc1ccc(C(F)F)nc1)c1nc(C2CC2)cc(-n2ccnc2)n1` [Compound 205, 4-cyclopropyl-N-(6-(difluoromethyl)pyridin-3-yl)-6-(1H-imidazol-1-yl)pyrimidine-2-carboxamide], the IC50 was 4 nM on human CD38, 1.6 nM at mouse CD38 and 410 nM in assay [1].

As for `Cc1cc(NC(=O)c2cccc(-c3cncs3)n2)ccn1` [Compound 52, N-(2-methylpyridin-4-yl)-6-(thiazol-5-yl)picolinamide], the IC50 at human CD38 was determined as 678 nM; at mouse CD38, 292 nM; in assay [1], 11400 nM.

On to `Cc1ccc(-n2ccnc2)nc1C(=O)N[C@H]1CC[C@H](C(F)F)CC1` [Compound 101, N-(4-(difluoromethyl)cyclohexyl)-6-(1H-imidazol-1-yl)-3-methylpicolinamide], for which the IC50 at human CD38 was found to be 210 nM; on mouse CD38, 42 nM; in assay [1], 8310 nM.

`O=C(Nc1ccc(C(F)F)nc1)c1cc(C2CC2)nc(-n2ccnc2)n1` [Compound 162, 6-cyclopropyl-N-(6-(difluoromethyl)pyridin-3-yl)-2-(1H-imidazol-1-yl)pyrimidine-4-carboxamide]: the IC50 was found to be 3 nM on human CD38, 1 nM at mouse CD38 and 718 nM in assay [1].

As for `Cn1cncc1-c1cncc(C(=O)N[C@H]2CC[C@H](C)CC2)n1` [Compound 104, 6-(1-methyl-1H-imidazol-5-yl)-N-((1r,4r)-4-methylcyclohexyl)pyrazine-2-carboxamide], the IC50 at human CD38 was determined as 24 nM; on mouse CD38, 10 nM; in assay [1] it was 1360 nM.

As to `Cn1cncc1-c1ccnc(C(=O)NC23CC(C(C)(C)O)(C2)C3)n1` [Compound 294, N-(3-(2-hydroxypropan-2-yl)bicyclo[1.1.1]pentan-1-yl)-4-(1-methyl-1H-imidazol-5-yl)pyrimidine-2-carboxamide], the IC50 at human CD38 came to 251 nM; at mouse CD38 it was 176 nM; in assay [1], 4480 nM.

`O=C(Nc1ccc(C(F)(F)F)nc1)c1nccc(-n2ccnc2)n1` [Compound 72, 4-(1H-imidazol-1-yl)-N-(6-(trifluoromethyl)pyridin-3-yl)pyrimidine-2-carboxamide]: the IC50 came to 4 nM at human CD38, 19 nM on mouse CD38 and 295 nM in assay [1].
